Assay results reported in patent publication US6235736A, “3-anilino-2-cycloalkenone derivatives” (Nikken Chemicals Co., Ltd., priority 1997, dated 2001).

Assays:
Type IV PDE [1] = experiment: PDE IV inhibitory activity (isozyme partially purified from rat neutrophils, 3H-cAMP substrate); type: biochemical; details: rat neutrophil PDE IV, 30° C., 30 minutes, read-out: PDE IV inhibiting action IC50
How it was run: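 Rat neutrophil PDE IV partially purified by ion-exchange chromatography; incubated with compound in 50 mM Tris-HCl, 5 mM MgCl2 and 3H-cAMP substrate, 30 °C for 30 min, stopped by boiling. Product converted to 3H-adenosine by 5'-nucleotidase, separated by ion exchange, counted by scintillation; IC50 in M.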

[2] = tested on: antigen-induced bronchoconstriction in guinea-pig; experiment: Inhibitory effect on antigen-induced bronchospasm (anti-asthmatic action); type: in vivo, guinea-pig (Hartley male); details: Cavia porcellus; intravenous, 10 minutes before 0.2 mg/kg OA challenge; read-out: Action suppressing antigen induced bronchoconstriction ED50
Protocol: Hartley male guinea-pig was sensitized by intramuscular administration of 35 mg Ovalbumin (OA) at first day and fourth day. After 25 to 29 days of first sensitization, trachial canula was introduced in the guinea pig anesthetized with pentobarbital and artificial ventilation was performed. The overflow of the ventilation was measured by the Konzett Roessler method while 0.2 mg/kg OA were administered intravenously. The test compound was dissolved in polyethylene glycol 400 and intravenously administered 10 minutes before OA challenge.

rat neutrophils = experiment: Inhibition of superoxide anion release from rat neutrophils (chemiluminescence); type: cell-based; details: Neutrophil, stimulated with 0.3 micro M A23187, read-out: Action suppressing release of superoxide anions from rat neutrophils IC50
Protocol: The release of super oxide anions was measured so as to study the inhibitory effects of the compound of the present invention on inflammatory leukocytes, that is, neutrophils.
Blood sample was collected from Wister rats anestetized with ether. It was superposed on a blood cell separation solution (Polymorphoprep 1.113, Naicomed Farm) and the neutrophils were separated by centrifugation. The neutrophils were resuspended in a Hank's balanced salt solution at a concentration of 0.5×10^4 cells/ml. 0.1 mM of lusigenin and the test substance dissolved in DMSO were added to 2 ml of the cell suspension. The chemiluminescence generated by stimulation of 0.3 maicro M calcium ionophore A23187 was measured by a chemiluminescence reader so as to evaluate the release of super oxide anions.

[3] = tested on: TPA induced ear edema in mouse; experiment: TPA induced mouse ear edema assay; type: in vivo, mouse (male ICR); details: 0.1 mg applied to right ear immediately after TPA; 6 hour
How it was run: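 Male ICR mice (5 weeks, n = 7–8) received 2 μg TPA in acetone on the right ear, then 0.1 mg compound in THF–methanol (1:1) topically straight after. At 6 h, ear punches were weighed and % inhibition of edema was calculated.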

type IV PDE [4] = details: background art (Kokai No. 50-157360); cited from earlier work
[5] = tested on: DNFB contact-type dermatitis in mouse; experiment: Allergic contact dermatitis assay (DNFB); type: in vivo, mouse (ICR male); details: applied 1 hour before and 5 hours after inducing ear edema; 24 hours
Protocol: 8 to 9 week old ICR type male mice were divided into groups of 8 to 9 each for use. The shaved skin of the ventral surface of each of the mice was applied with a 0.5% DNFB (2,4-dinitrofluorobenzene)acetone-olive oil solution (v/v=4/1) in an amount of 25 μl/day over 2 days to sensitize it. Four days after the second day of sensitization, a 0.2% DNFB acetone-olive oil solution was applied to the ear in an amount of 25 μl to induce contact-type dermatitis. After 24 hours, the thickness of the ear was measured using a dial thickness gauge and the difference with the value before inducing the edema was found. The test compound was dissolved in 25 μl of tetrahydrofuran-methanol (mixture ratio 1:1) and applied two time, that is, 1 hour before inducing the ear edema and 5 hours after it.
In Table 6, the effect of the compound was expressed by the ED50.

Structure (SMILES) | IC50 (Type IV PDE [1]) [nM] | IC50 (rat neutrophils) [nM] | ED50 [2] [mg/kg] | % Inhibition of ear edema [3] [%] | specific inhibitory activity against type IV PDE (in words) (type IV PDE [4]) | ED50 (allergic contact dermatitis, ear edema) [5] [μg/site]
COc1ccc(C2CNC(=O)C2)cc1OC1CCCC1 (centres unmarked) [Rolipram] | – | – | – | – | specific inhibitory activity against type IV PDE | –
COc1ccc(NC2=CC(=O)N(Cc3ccccc3)CC2)cc1OC1CCCC1 [Compound No. 22, 1-benzyl-4-(3-cyclopentyloxy-4-methoxyanilino)-1,2,5,6-tetrahydropyridin-2-one] | 24000 | 3300 | – | 76.8 | – | 32
COc1ccc(NC2=C(C)C(=O)CC2)cc1OC1CCCCC1 [Compound No. 14, 3-(3-cyclohexyloxy-4-methoxyanilino)-2-methyl-2-cyclopenten-1-one] | 2400 | – | – | 73.4 | – | 16

The next lines start with results.

IC50 (Type IV PDE [1]) [nM] | IC50 (rat neutrophils) [nM] | Structure (SMILES) | ED50 [2] [mg/kg] | % Inhibition of ear edema [3] [%] | specific inhibitory activity against type IV PDE (in words) (type IV PDE [4]) | ED50 (allergic contact dermatitis, ear edema) [5] [μg/site]
1600 | 120 | COc1ccc(NC2=CC(=O)CC2)cc1OC1CCCC1 [Compound No. 1, 3-(3-cyclopentyloxy-4-methoxyanilino)-2-cyclopenten-1-one] | 1.4 | 68.2 | – | –
1300 | 140 | COc1ccc(NC2=CC(=O)CC2)cc1O[C@@H]1C[C@H]2CC[C@@H]1C2 (racemic) [Compound No. 8, 3-[3-[(1RS,2RS,4SR)-bicyclo[2.2. 1]hept-2-yloxy]-4-methoxyanilino]-2-cyclopenten-1-one] | 3 | 73.1 | – | –
690 | – | COc1ccc(NC2=CC(=O)CC2)cc1OC1Cc2ccccc2C1 [Compound No. 9, 3-[3-(2-indanyloxy)-4-methoxyanilino]-2-cyclopenten-1-one] | 5.5 | 72.3 | – | 94
2400 | 190 | COc1ccc(NC2=CC(=O)NCC2)cc1O[C@H]1C[C@@H]2CC[C@H]1C2 (relative stereo) [Compound No. 23] | – | 73.0 | – | –
1100 | 410 | COc1ccc(NC2=CC(=O)NCC2)cc1OC1CCCC1 [Compound No. 21, 4-(3-cyclopentyloxy-4-methoxyanilino)-1,2,5,6-tetrahydropyridin-2-one] | 1 | – | – | –
